The target in the test is T1, Human PDE10A enzyme (Homo sapiens, UniProt Q9Y233).
T1 construct: transfected with the full-length gene; His-tag; made in house; host or cells: Sf9 or COS-7 cells
Put plainly: PDE enzyme inhibition, SPA (Scintillation Proximity Assay) with [3H]cGMP. The class given is biochemical. The settings on record: [3H]cGMP substrate; for inhibition at 1 µM: compound 1 μM, read-out: Percent inhibition (1 μM); for inhibition at 10 µM: compound 10 μM, read-out: Percent inhibition (10 μM); for inhibition at 0.1 µM: compound 0.1 μM, read-out: Percent inhibition (0.1 μM). The protocol: Human PDE10A enzyme was generated from Sf9 or COS-7 cells transfected with the full-length gene. Cloned enzyme was extracted from homogenized cell pellets. The extracted enzyme from sf9 cells was partially purified using His-tag affinity column. The enzyme was stored at −70° C. until use. PDE activity was measured using a SPA (Scintillation Proximity Assay) (GE Healthcare). To evaluate the inhibitory activity, 10 μL of serial diluted compounds were incubated with 20 μL of PDE enzyme in assay buffer (50 mM HEPES-NaOH, 8.3 mM MgCl2, 1.7 mM EGTA, 0.1% BSA (pH 7.4)) for 30 min. at room temperature. Final concentration of DMSO in the assay was 1 percent as compounds were tested in duplicate in 96-well half-area plates (Corning). To start the reaction, 10 μL of substrate [^3H] cGMP (25 or 50 nM; enclosed in SPA kits from GE Healthcare or purchased from PerkinElmer, respectively) was added for a final assay volume of 40 μL. After 60 min incubation at room temperature, yttrium SPA beads containing Zinc sulphate were added (20 μL at 6 mg/mL) to terminate the PDE reaction. After being settled for 60 min, assay plates were counted in a scintillation counter (PerkinElmer) to allow calculation of inhibition rate. Inhibition rate was calculated on the basis of 0% control wells with DMSO and 100% control wells without enzyme.
A general note: Scintillation proximity formats need no separation of bound from free tracer.

T1 sequence (Q9Y233 267-1055): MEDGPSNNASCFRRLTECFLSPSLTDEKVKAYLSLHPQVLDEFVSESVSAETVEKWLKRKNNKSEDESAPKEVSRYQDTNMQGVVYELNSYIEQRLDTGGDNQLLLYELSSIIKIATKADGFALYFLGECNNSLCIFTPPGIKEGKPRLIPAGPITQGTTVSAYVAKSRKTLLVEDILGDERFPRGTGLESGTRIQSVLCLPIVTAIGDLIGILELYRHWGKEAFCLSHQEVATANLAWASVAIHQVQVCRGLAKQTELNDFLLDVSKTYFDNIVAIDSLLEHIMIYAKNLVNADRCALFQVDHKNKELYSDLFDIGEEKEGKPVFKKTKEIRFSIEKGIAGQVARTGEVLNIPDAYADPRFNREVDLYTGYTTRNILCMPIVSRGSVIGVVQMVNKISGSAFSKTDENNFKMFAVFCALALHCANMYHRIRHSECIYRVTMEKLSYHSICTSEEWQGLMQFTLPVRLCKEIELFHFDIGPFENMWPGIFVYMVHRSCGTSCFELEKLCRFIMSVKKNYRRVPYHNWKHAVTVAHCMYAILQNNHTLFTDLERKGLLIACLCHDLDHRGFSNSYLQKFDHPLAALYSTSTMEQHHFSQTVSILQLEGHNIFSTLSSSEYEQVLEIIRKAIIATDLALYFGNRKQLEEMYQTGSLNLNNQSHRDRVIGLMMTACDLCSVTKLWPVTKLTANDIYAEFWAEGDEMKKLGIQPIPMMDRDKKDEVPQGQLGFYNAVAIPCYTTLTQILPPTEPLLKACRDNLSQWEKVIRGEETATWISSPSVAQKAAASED

Turning to `CCn1c(=O)n(-c2ccc(Oc3nc4cccnc4n3C)cc2)c2ncc(Cl)cc21` [Example 107, 6-chloro-1-ethyl-3-{4-[(3-methyl-3H-imidazo[4,5-b]pyridin-2-yl)oxy]phenyl}-1,3-dihydro-2H-imidazo[4,5-b]pyridin-2-one], the inhibition at 1 µM was 103% and the inhibition at 10 µM was determined as 102%.
Regarding `Cc1ccnc2c1n(C)c(=O)n2-c1ccc(Oc2nc3cccnc3n2C)cc1` [Example 135, 1,7-dimethyl-3-{4-[(3-methyl-3H-imidazo[4,5-b]pyridin-2-yl)oxy]phenyl}-1,3-dihydro-2H-imidazo[4,5-b]pyridin-2-one], the inhibition at 1 µM stood at 94% and the inhibition at 10 µM was found to be 99%.
For `CCn1c(=O)n(-c2ccc(Oc3nc4cccnc4n3C)cc2)c2ncc(F)cc21` [Example 133, 1-ethyl-6-fluoro-3-{4-[(3-methyl-3H-imidazo[4,5-b]pyridin-2-yl)oxy]phenyl}-1,3-dihydro-2H-imidazo[4,5-b]pyridin-2-one] the same measures were 104% and 101%.
In the case of `CCn1c(=O)n(-c2ccc(Oc3nc4ccccc4n3C)cc2)c2ncc(C#N)cc21` [Example 109, 1-ethyl-3-{4-[(1-methyl-1H-benzimidazol-2-yl)oxy]phenyl}-2-oxo-2,3-dihydro-1H-imidazo[4,5-b]pyridine-6-carbonitrile], the inhibition at 1 µM came to 99% and the inhibition at 10 µM came out at 102%.
For `CCn1c(=O)n(-c2ccc3c(c2)CCN3c2nc3ccccc3n2C)c2ncccc21` [Example 48, 1-ethyl-3-[1-(1-methyl-1H-benzimidazol-2-yl)-2,3-dihydro-1H-indol-5-yl]-1,3-dihydro-2H-imidazo[4,5-b]pyridin-2-one] the same measures were 96% and 100%.
`CCn1c(=O)n(-c2ccc(Oc3cn4ccccc4n3)cc2)c2ncccc21` [Example 31, 1-ethyl-3-[4-(imidazo[1,2-a]pyridin-2-yloxy)phenyl]-1,3-dihydro-2H-imidazo[4,5-b]pyridin-2-one]: the inhibition at 1 µM is 99% and the inhibition at 10 µM was 98%.
For `CCn1c(=O)n(-c2ccc(Oc3nc4cccnc4n3C)cc2)c2c1c(C)cc[n+]2[O-]` [Example 136, 1-ethyl-7-methyl-3-{4-[(3-methyl-3H-imidazo[4,5-b]pyridin-2-yl)oxy]phenyl}-1,3-dihydro-2H-imidazo[4,5-b]pyridin-2-one 4-oxide] the same measures were 81% and 98%.
For `CC(C)n1c(=O)n(-c2ccc3c(c2)CCN3c2nc3cccnc3[nH]2)c2ncccc21` [Example 72, 3-[1-(3H-imidazo[4,5-b]pyridin-2-yl)-2,3-dihydro-1H-indol-5-yl]-1-(1-methylethyl)-1,3-dihydro-2H-imidazo[4,5-b]pyridin-2-one] the same measures were 104% and 110%.
With `O=c1[nH]c2cccnc2n1-c1ccc(N2CCn3c2nc2ccccc23)cc1` [Example 2, 3-[4-(2,3-dihydro-1H-imidazo[1,2-a]benzimidazol-1-yl)phenyl]-1,3-dihydro-2H-imidazo[4,5-b]pyridin-2-one], the inhibition at 1 µM is 104% and the inhibition at 10 µM was 103%.
For `Cn1c(Oc2ccc(-n3c(=O)n(C(F)F)c4cccnc43)cc2)nc2cccnc21` [Example 101] the same measures were 101% and 99%.
With `Cn1c(Oc2ccc(-n3c(=O)n(C(F)F)c4cccnc43)cc2)nc2ccccc21` [Example 100, 1-(difluoromethyl)-3-{4-[(1-methyl-1H-benzimidazol-2-yl)oxy]phenyl}-1,3-dihydro-2H-imidazo[4,5-b]pyridin-2-one], the inhibition at 1 µM worked out at 99% and the inhibition at 10 µM was determined as 100%.
For `CCn1c(=O)n(-c2ccc(Oc3nc4cccnc4n3C)cc2)c2nccc(COC(C)=O)c21` [Example 137, (1-ethyl-3-{4-[(3-methyl-3H-imidazo[4,5-b]pyridin-2-yl)oxy]phenyl}-2-oxo-2,3-dihydro-1H-imidazo[4,5-b]pyridin-7-yl)methyl acetate] the same measures were 88% and 98%.
For `CC(C)n1c(=O)n(-c2ccc(Oc3nc4cccnc4n3C)cc2)c2ncccc21` [Example 98, 1-(1-methylethyl)-3-{4-[(3-methyl-3H-imidazo[4,5-b]pyridin-2-yl)oxy]phenyl}-1,3-dihydro-2H-imidazo[4,5-b]pyridin-2-one] the same measures were 99% and 101%.
For the compound `CC1(C)C(=O)N(c2ccc(Oc3cn4ccccc4n3)cc2)c2ncccc21` [Example 123, 1-[4-(imidazo[1,2-a]pyridin-2-yloxy)phenyl]-3,3-dimethyl-1,3-dihydro-2H-pyrrolo[2,3-b]pyridin-2-one], the inhibition at 1 µM was 96% and the inhibition at 10 µM was found to be 101%.
For `Cn1c(Oc2ccc(-n3c(=O)n(C4CC4)c4cccnc43)cc2)nc2ccccc21` [Example 103, 1-cyclopropyl-3-{4-[(1-methyl-1H-benzimidazol-2-yl)oxy]phenyl}-1,3-dihydro-2H-imidazo[4,5-b]pyridin-2-one] the same measures were 101% and 103%.
In the case of `Cn1c(=O)n(-c2ccc(N3CCn4c3nc3ccccc34)cc2)c2ncccc21` [Example 3, 3-[4-(2,3-dihydro-1H-imidazo[1,2-a]benzimidazol-1-yl)phenyl]-1-methyl-1,3-dihydro-2H-imidazo[4,5-b]pyridin-2-one], the inhibition at 0.1 µM was found to be 99%.
With `CCn1c(=O)n(-c2ccc(Oc3nc4ccncc4[nH]3)cc2)c2ncccc21` [Example 115, 1-ethyl-3-[4-(3H-imidazo[4,5-c]pyridin-2-yloxy)phenyl]-1,3-dihydro-2H-imidazo[4,5-b]pyridin-2-one], the inhibition at 1 µM came out at 100% and the inhibition at 10 µM amounted to 97%.
`CCn1c(=O)n(-c2ccc(Oc3nc4cccnc4n3C)cc2)c2nccc(C)c21` [Example 120, 1-ethyl-7-methyl-3-{4-[(3-methyl-3H-imidazo[4,5-b]pyridin-2-yl)oxy]phenyl}-1,3-dihydro-2H-imidazo[4,5-b]pyridin-2-one]: the inhibition at 1 µM stood at 109% and the inhibition at 10 µM turned out to be 106%.
Take `CCn1c(=O)n(-c2ccc(Nc3nc4ccc(F)cc4o3)cc2)c2ncccc21` [Example 27, 1-ethyl-3-{4-[(6-fluoro-1,3-benzoxazol-2-yl)amino]phenyl)-1,3-dihydro-2H-imidazo[4,5-b]pyridin-2-one]: the inhibition at 0.1 µM is 102%.
Take `CCn1c(=O)n(-c2ccc(Oc3cn4ccccc4n3)cc2)c2ncc(C)cc21` [Example 124, 1-ethyl-3-[4-(imidazo[1,2-a]pyridin-2-yloxy)phenyl]-6-methyl-1,3-dihydro-2H-imidazo[4,5-b]pyridin-2-one]: the inhibition at 1 µM turned out to be 99% and the inhibition at 10 µM stood at 99%.
Take `CCn1c(=O)n(-c2ccc3c(c2)CCN3c2nc3cccnc3[nH]2)c2ncccc21` [Example 71, 1-ethyl-3-[1-(3H-imidazo[4,5-b]pyridin-2-yl)-2,3-dihydro-1H-indol-5-yl]-1,3-dihydro-2H-imidazo[4,5-b]pyridin-2-one]: the inhibition at 1 µM stood at 99% and the inhibition at 10 µM was 97%.

The inhibition is the drop in the measured response relative to a control, in per cent.

The values above are taken from patent US8846713B2, “Fused heterocyclic compounds as phosphodiesterases (PDEs) inhibitors” (Takeda Pharmaceutical Company Limited, priority 2010, dated 2014).
